Source: US20200239530A1, “COMPOUNDS AND METHODS OF MODULATING PROTEIN DEGRADATION” (Vividion Therapeutics, Inc., priority 2017, published 2020)
Like-named read-outs stand apart in the source and are kept apart here. Blank lines part the entries; values can stand above or below the compound they belong to.

How the values were obtained:
[1] = target: T1, AREL1 Apoptosis-resistant E3 ubiquitin protein ligase 1 (Homo sapiens, UniProt O15033); assay: Cysteine liganding, probe competition; assay type: binding
T1 construct: endogenous in cells
T1 sequence (O15033 1-823): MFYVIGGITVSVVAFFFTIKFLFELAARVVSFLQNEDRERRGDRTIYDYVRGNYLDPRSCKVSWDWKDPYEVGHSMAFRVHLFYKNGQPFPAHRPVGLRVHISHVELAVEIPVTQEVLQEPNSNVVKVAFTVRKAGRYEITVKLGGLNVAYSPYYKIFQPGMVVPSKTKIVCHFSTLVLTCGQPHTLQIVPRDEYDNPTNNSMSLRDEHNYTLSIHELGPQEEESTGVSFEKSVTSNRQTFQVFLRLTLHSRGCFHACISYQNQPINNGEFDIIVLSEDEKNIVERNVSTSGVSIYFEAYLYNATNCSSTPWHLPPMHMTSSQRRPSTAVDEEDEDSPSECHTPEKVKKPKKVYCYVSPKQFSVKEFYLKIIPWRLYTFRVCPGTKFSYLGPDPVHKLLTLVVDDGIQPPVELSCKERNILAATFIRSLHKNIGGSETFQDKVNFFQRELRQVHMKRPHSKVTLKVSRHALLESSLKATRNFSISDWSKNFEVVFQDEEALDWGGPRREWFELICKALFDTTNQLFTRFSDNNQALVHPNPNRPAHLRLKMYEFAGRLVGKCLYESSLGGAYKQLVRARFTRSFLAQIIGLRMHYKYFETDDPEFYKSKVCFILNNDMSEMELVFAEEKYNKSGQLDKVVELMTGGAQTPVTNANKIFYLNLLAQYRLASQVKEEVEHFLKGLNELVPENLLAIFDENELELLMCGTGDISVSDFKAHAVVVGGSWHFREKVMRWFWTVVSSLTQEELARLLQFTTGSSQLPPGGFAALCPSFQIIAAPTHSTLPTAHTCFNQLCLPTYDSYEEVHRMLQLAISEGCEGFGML
Procedure: (§1) Cells were resuspended in cold PBS on ice and sonicated with a probe sonicator to achieve lysis. 200 μL of lysate containing 5 mg/ml proteome was treated with 2 μL of 100× compound stock in a 2-mL deep-well plate. The treated lysate was subsequently incubate at 25° C. for 1 hr with shaking at 600 rpm. The treated lysate was further incubated with 2 μL of 10 mM desthiobiotin iodoacetamide probe at 25° C. for 1 hr with shaking at 600 rpm. Next, the lysate was further treat with 20 μL of solution of PBS containing 11 mM MgSO4 and 2.5% Turbonuclease stock and incubated at 25° C. for 20 minutes with shaking at 600 rpm. 1.7 mL ice-cold acetone was added to each well and incubated at −20° C. for 2 hr, followed by max speed (4200 rpm) spin for 45 min. Acetone was then decanted and the plates were blotted to remove acetone. The plates were then dried in open air for 20 minutes. After drying, the plates were then covered with foil seal and stored at −80° C. overnight.
(§2) The next day, samples were re-suspended in 90 μL of solution of 9M urea, 50 mM ammonium bicarbonate and 10 mM DTT by incubating at 65C for 20 min with shaking at 1500 rpm. Next, samples were cooled to 37° C. and then 10 μL of 500 mM iodoacetamide solution (92.48 mg/ml) was added. The samples were then incubated at 37° C. for 30 min with shaking at 600 rpm.
(§3) ZEBA desalting plates were equilibrated 4 times using 250 μL of 2M urea, 50 mM ammonium bicarbonate solution followed by centrifugation at 1500 rpm for 2 minutes. After equilibration was complete, samples were applied to ZEBA desalting plate and spin at 1500 rpm for 2 min on top of 1 mL 96-well deep-well collection plate to buffer exchange samples. 4 μL of solution containing 25 mM CaCl2 and 0.25 mg/mL trypsin was added to the plate and the plate was then incubated at 37° C. for 2 hrs with shaking at 600 rpm. 300 μL of solution containing 5% high-capacity streptavidin agarose slurry in 25 mM Tris-HCl pH 7.5, 150 mM NaCl, and 0.1% NP-40 then added. The plate was incubated at 25° C. for 2 hrs with shaking at 600 rpm. Samples were transferred to 25 μm filter plate and spin at 1000 rpm for 2 min. Samples were then washed 3 times with 0.75 mL of wash buffer (25 mM Tris-HCl pH 7.5, 150 mM NaCl, and 0.1% NP-40) followed by washing 3 times with 0.75 mL PBS, and then 4 times with 0.75 mL water. After the washing step, samples were eluted into polypropylene 96-well plate by addition of 250 µL of 50% MeCN/water, 0.1% formic acid and allowed to gravity drip for 10 min, followed by centrifugation at 1000 rpm for 2 min. Speedvac was used to dry the plates at about 45° C. for […]. Then the plates were covered with foil seal and stored at −20° C.
(§4) Samples were resuspended by addition of 20 μl of 12.5% ACN, 0.1% formic acid solution, covered with foil seal, and incubated at 42° C. for 10 minutes with shaking at 600 rpm. Then add 30 μL of 0.1% formic acid solution was added and the plate was covered and incubated at 42° C. for 10 minutes with shaking at 600 rpm. Seal plate was then sealed with a 96-well silicon mat for analysis.

[2] = target: T2, PCGF2 Polycomb group RING finger protein 2 (Homo sapiens, UniProt P35227); assay: Cysteine liganding, probe competition; assay type: binding
T2 construct: Cells were resuspended in cold PBS on ice and sonicated with a probe sonicator to achieve lysis; endogenous in cells
T2 sequence (P35227 1-344): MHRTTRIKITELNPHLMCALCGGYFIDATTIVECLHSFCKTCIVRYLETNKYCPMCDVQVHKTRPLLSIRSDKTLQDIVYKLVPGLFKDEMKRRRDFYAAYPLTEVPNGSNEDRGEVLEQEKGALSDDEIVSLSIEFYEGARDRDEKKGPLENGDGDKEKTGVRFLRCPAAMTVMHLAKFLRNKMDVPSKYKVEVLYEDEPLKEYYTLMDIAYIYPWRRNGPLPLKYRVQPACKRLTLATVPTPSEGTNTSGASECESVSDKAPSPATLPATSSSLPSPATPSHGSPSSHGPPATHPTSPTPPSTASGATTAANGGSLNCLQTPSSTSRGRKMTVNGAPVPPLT
Procedure: as §1, §2, §3, §4

Structure (SMILES): COc1ccc2c(c1)CCCN2C(=O)CCl [KB02]
inhibition at 100 µM ([1]; 100 uM, UniProt O15033, read-out: KB02_100 uM_percent_inhibition): 77%
inhibition at 500 µM ([1]; 500 uM, UniProt O15033, read-out: KB02_500 uM_percent_inhibition): 96%
Liganded ([1]; AREL1 Res# 382, uniprot O15033): YES
Liganded ([2]; PCGF2 Res# 233, uniprot P35227): YES

inhibition at 100 µM ([1]; 100 uM, UniProt O15033, read-out: KB05_100 uM_percent_inhibition): 69%
inhibition at 500 µM ([1]; 500 uM, UniProt O15033, read-out: KB05_500 uM_percent_inhibition): 92%
KB05_100 uM_percent_inhibition ([2]; UniProt P35227, 100 uM): 29%
inhibition at 100 µM ([2]; UniProt P35227, 100 uM, read-out: KB05_100 uM_percent_inhibition): 28%
Structure (SMILES): C=CC(=O)N(c1ccccc1)c1ccc(Br)cc1 [KB05]

Structure (SMILES): O=C(CCl)Nc1cc(C(F)(F)F)cc(C(F)(F)F)c1 [KBO3]
KB03_100 uM_percent_inhibition ([1]; 100 uM, UniProt O15033): 57%
KB03_500 uM_percent_inhibition ([1]; 500 uM, UniProt O15033): 87%
100 Max ([1]; uniprot O15033): 56.8
100 ave ([1]; uniprot O15033): 49.1
500 ave ([1]; uniprot O15033): 55.1
500 Max ([1]; uniprot O15033, unit assumed): 55.1%
KB03_100 uM_percent_inhibition ([2]; UniProt P35227, 100 uM): 37%
100 ave ([2]; uniprot P35227): −4.4
500 ave ([2]; uniprot P35227): 35.9
100 Max ([2]; uniprot P35227, unit assumed): 5.9%
500 Max ([2]; uniprot P35227, unit assumed): 49.9%
